The record followed here is patent US7687465B2, “Therapeutic cancer vaccine” (Kraeftens Bekaempelse, priority 2003, dated 2010).

The assay concerns PBL from HLA-A3 antigen positive melanoma patients. In words: ELISPOT in PBL from HLA-A3 antigen positive melanoma patients. Format: cell-based, human. As to the method: T-cell response against the ML-IAP245-253 ([…]) peptide as measured in an ELISPOT in PBL from 14 melanoma patients. T-lymphocytes were stimulated once with peptide before plated in triplicates either without or with peptide. The average number of peptide specific cells (after subtraction of spots without added peptide) was calculated for each patient as the number of spot forming cells per 10^5 CD8 positive cells after subtraction of the number of background spots formed without addition of peptide using the ImmunoSpot® Series 2.0 Analyzer (CTL Analyzers, LLC, Cleveland, US).
To extend the sensitivity of the ELISPOT assay, PBL were stimulated once in vitro prior to analysis^17,18. At day 0, PBL or crushed lymph nodes were thawed and plated in 2 ml/well at a concentration of 2×10^6 cells in 24-well plates (Nunc, Denmark) in X-vivo medium (Bio Whittaker, Walkersville, Md.), 5% heat-inactivated human serum, and 2 mM of L-glutamine in the presence of 10 μM of peptide. […]
The ELISPOT assay used to quantify peptide epitope-specific interferon-γ-releasing effector cells was performed as described previously^19. […] The spots were counted using the AlphaImager System (Alpha Innotech, San Leandro, Calif. USA) and the peptide specific CTL frequency could be calculated from the numbers of spot-forming cells. […]

As to “RLQEERTCK (listed as Homo sapiens) [mL-IAP245-253]”, under “in the five responding patients”, the “peptide specific T-cells per 10^5 CD8+ cells” value is on record as “more than 200 per 10^5 CD8+ cells”. Also, for the setting “of 14 HLA-A3 antigen positive melanoma patients, response of more than 200 specific T-cells per 10^5 CD8+ cells”, the “patients hosting an immune response against the peptide” value is listed as “five”.
